Values after ≈ are worked out from the molar mass of the structure shown. Values joined by “and” are separate entries in the source; they are usually repeats but may differ in a detail not shown here. Identical values can stand only once.
Assays:
Trichophyton rubrum = test: agar dilution in vitro activity test; format: cell-based; settings: 17 organisms, Kimmig's agar, 25° C.; for MIC: read-out: GMMICS (geometric mean minimum inhibitory concentration)
Procedure: (§1) Organisms listed in Table 1 were tested according to an agar dilution method: Suspensions of each microorganism were prepared to contain […] colony forming units (cfu)/mL. All drugs were dissolved in a few drops of DMSO then diluted with ethanol—water (1/1, v/v) to make a stock solution of 500 μg/mL. The agar dilution method was performed in a medium of Kimmig's agar (K. A., Merck) −0.5% glycerol [R. A. Fromtling, G. K. Abruzzo and A. Ruiz, Mycopathologia, 106 (1989) 163-166]. Plates of Kimmig's agar containing serial dilutions (25 to 0.01 μg/mL) of the drugs were inoculated with 10 μL of the fungal inocula and incubated at 25° C. […] for yeasts and up to 5 days for filamentous fungi. Following incubation, GMMICs (geometric mean minimum inhibitory concentration μg/mL) were determined. In the table POCZ indicates posaconazole, ITRZ indicates itraconazole, EQUZ indicates Equaconazole, and FLUZ indicates fluconazole [Patterson, T. F., S. G. Revankar, W. R. Kirkpatrick, O. Dib, A. W. Fothergill, S. W. Redding, D. A. Sutton, and M. G. Rinaldi, J. Clin. Microbiol. 34 (1996) 1794-1797].

Microsporum canis = test: agar dilution in vitro activity test; format: cell-based; settings: 6 organisms, Kimmig's agar, 25° C.; for MIC: read-out: GMMICS (geometric mean minimum inhibitory concentration)
Procedure: as §1

Cryptococcus neoformans = test: agar dilution in vitro activity test; format: cell-based; settings: 10 organisms, Kimmig's agar, 25° C.; for MIC: read-out: GMMICS (geometric mean minimum inhibitory concentration)
Procedure: as §1

Aspergillus Flavus = test: agar dilution in vitro activity test; format: cell-based; settings: 9 organisms, Kimmig's agar, 25° C.; for MIC: read-out: GMMICS (geometric mean minimum inhibitory concentration)
Procedure: as §1

Candida Krusei = test: agar dilution in vitro activity test; format: cell-based; settings: 22 organisms, Kimmig's agar, 25° C.; for MIC: Pichia kudriavzevii, read-out: GMMICS (geometric mean minimum inhibitory concentration)
Procedure: as §1

[1] = tested on: Ergosterol Biosynthesis, Candida albicans_C286; test: inhibition of ergosterol biosynthesis; format: cell-based, Candida albicans; settings: Candida albicans_C286, RPMI-1640, 30° C., 48 h
Procedure: (§2) Compounds of the invention were tested for their ability to inhibit ergosterol biosynthesis. Testing was performed in 96-well round-bottom microtitration plates (Table 2). Cell suspensions were prepared in RPMI-1640 medium and were adjusted to give a final inoculum concentration of 0.5×10^3 to 2.5×10^3 cells/ml. The plates were incubated incubated at 30° C. for 48 h before growth was assessed. The MIC of each compounds was defined as the lowest concentration at which there was 80% inhibition of growth compared with that in a drug-free control [O. N. Breivik and J. L. Owades, Agric. Food Chem., 5 (1957) 360-363; T. F. Patterson, S. G. Revankar, W. R. Kirkpatrick, O. Dib, A. W. Fothergill, S. W. Redding, D. A. Sutton and M. G. Rinaldi, J. Clin. Microbiol., 34 (1996) 1794-1797]. Ergosterol content was calculated as a percentage of the wet weight of the cell [National Committee for Clinical Laboratory Standards. 1997. Reference method for broth dilution antifungal susceptibility testing of yeasts, Approved standard. Document M27-A, National Committee for Clinical Laboratory Standards, Wayne, Pa.].

[2] = PK study of antifungal nasal spray, plasma level after intranasal dosing; format: in vivo, Gottingen mini-pigs
Procedure: Experiments were performed to determine blood levels of Posaconazole formulation after intranasal dosing in Gottingen mini-pigs. A Group of three male and three female mini-pigs (ages from 6 to 9 months) were used for the studies. The vehicle used in the experiments was 5% of PEG-12 GDM in saline solution. The intranasal administration was performed with 35 mL of Luer slip syringes. HPLC-MS analyses were performed on heparinized mini-pig plasma samples obtained typically at 0 hr, 0.08 hr, 1 hr, 2 hr, 4 hr, 12 hr and 24 hr after dosing. The drug was first isolated from plasma with a sample pre-treatment. Acetonitrile were used to remove proteins in samples. An isocratic HPLC-MS method was then used to separate the drug from any potential interference. Drug levels were measured by MS detection with a multiple reaction monitoring (MRM) mode.

[3] = tested on: Ergosterol Biosynthesis, Aspergillus fumigatus_ND 158; test: inhibition of ergosterol biosynthesis; format: cell-based, Aspergillus fumigatus; settings: Aspergillus fumigatus_ND 158, RPMI-1640, 30° C., 48 h
Procedure: as §2

In the case of `OC(Cn1cncn1)(Cn1cncn1)c1ccc(F)cc1F` [FLUZ, fluconazole], the MIC (Trichophyton rubrum) is reported as 105 µg/mL (≈ 343 µM), the MIC (Microsporum canis) is reported as 151 µg/mL (≈ 493 µM) and the MIC (Cryptococcus neoformans) is reported as 45 µg/mL (≈ 147 µM). The MIC (Aspergillus Flavus) was over 235 µg/mL and the MIC (Candida Krusei) was 65 µg/mL (≈ 212 µM).
Work on `CCC(C)n1ncn(-c2ccc(N3CCN(c4ccc(OCC5COC(Cn6cncn6)(c6ccc(Cl)cc6Cl)O5)cc4)CC3)cc2)c1=O` (stereo not drawn) [ITRZ, itraconazole] yielded an IC50 [1] of 39.1 nM, an MIC (Trichophyton rubrum) of 3.1 µg/mL (≈ 4.39 µM) and an MIC (Microsporum canis) of 1.2 µg/mL (≈ 1.7 µM). It also gave an MIC (Cryptococcus neoformans) of 0.49 µg/mL (≈ 0.694 µM), an MIC (Aspergillus Flavus) of 0.35 µg/mL (≈ 0.496 µM) and an MIC (Candida Krusei) of 0.6 µg/mL (≈ 0.85 µM).
For `CC[C@@H]([C@H](C)O)n1ncn(-c2ccc(N3CCN(c4ccc(OC[C@@H]5CO[C@@](Cn6cncn6)(c6ccc(F)cc6F)C5)cc4)CC3)cc2)c1=O` [POCZ, posaconazole], the “Posaconazole Level in Mini-pig Plasma” value ([2]; 0.08 hour after intranasal dosing, 5% PEG-12 GDM in saline, individual animals, female mini-pigs) was 1.23 ng/mL and 1.39 ng/mL and 1.21 ng/mL, the “Posaconazole Level in Mini-pig Plasma” value ([2]; 0.08 hour after intranasal dosing, 5% PEG-12 GDM in saline, individual animals, male mini-pigs) was 1.74 ng/mL and 1.56 ng/mL and the “Posaconazole Level in Mini-pig Plasma” value ([2]; 1 hour after intranasal dosing, 5% PEG-12 GDM in saline, individual animals, female mini-pigs) was 2.06 ng/mL and 1.86 ng/mL and 1.26 ng/mL. The “Posaconazole Level in Mini-pig Plasma” value ([2]; 1 hour after intranasal dosing, 5% PEG-12 GDM in saline, individual animals, male mini-pigs) was 1.24 ng/mL and 1.26 ng/mL, the “Posaconazole Level in Mini-pig Plasma” value ([2]; 4 hour after intranasal dosing, 5% PEG-12 GDM in saline, individual animals, female mini-pigs) was 1.28 ng/mL and 1.17 ng/mL and 1.56 ng/mL and the “Posaconazole Level in Mini-pig Plasma” value ([2]; 4 hour after intranasal dosing, 5% PEG-12 GDM in saline, individual animals, male mini-pigs) was 1.42 ng/mL and 1.46 ng/mL. For the same molecule, the “Posaconazole Level in Mini-pig Plasma” value ([2]; 12 hour after intranasal dosing, 5% PEG-12 GDM in saline, individual animals, female mini-pigs) was 2.03 ng/mL and 2.44 ng/mL and 2.35 ng/mL, the “Posaconazole Level in Mini-pig Plasma” value ([2]; 12 hour after intranasal dosing, 5% PEG-12 GDM in saline, individual animals, male mini-pigs) was 2.41 ng/mL and 1.93 ng/mL and the “Posaconazole Level in Mini-pig Plasma” value ([2]; 24 hour after intranasal dosing, 5% PEG-12 GDM in saline, individual animals, female mini-pigs) was 1.17 ng/mL and 2.04 ng/mL and 1.46 ng/mL. The “Posaconazole Level in Mini-pig Plasma” value ([2]; 24 hour after intranasal dosing, 5% PEG-12 GDM in saline, individual animals, male mini-pigs) was 1.86 ng/mL and 1.66 ng/mL, the concentration at 0.08 h ([2]; both sexes, Gottingen, minipig, plasma, other: intranasal, 0.08 hour after intranasal dosing, 5% PEG-12 GDM in saline, individual animals, read-out: Posaconazole Level in Mini-pig Plasma) was 1.35 ng/mL and the concentration at 1 h ([2]; both sexes, Gottingen, minipig, plasma, other: intranasal, 1 hour after intranasal dosing, 5% PEG-12 GDM in saline, individual animals, read-out: Posaconazole Level in Mini-pig Plasma) was 1.62 ng/mL. It also gave a concentration at 4 h ([2]; both sexes, Gottingen, minipig, plasma, other: intranasal, 4 hour after intranasal dosing, 5% PEG-12 GDM in saline, individual animals, read-out: Posaconazole Level in Mini-pig Plasma) of 1.26 ng/mL, a concentration at 12 h ([2]; both sexes, Gottingen, minipig, plasma, other: intranasal, 12 hour after intranasal dosing, 5% PEG-12 GDM in saline, individual animals, read-out: Posaconazole Level in Mini-pig Plasma) of 1.96 ng/mL and a concentration at 24 h ([2]; both sexes, Gottingen, minipig, plasma, other: intranasal, 24 hour after intranasal dosing, 5% PEG-12 GDM in saline, individual animals, read-out: Posaconazole Level in Mini-pig Plasma) of 1.86 ng/mL. The “amount detected in mini-pig plasma after dosing (in words)” value ([2]; intranasal dosing with formulated Posaconazole) was “Only trace amounts”, the MIC (Trichophyton rubrum) was 1.2 µg/mL (≈ 1.71 µM) and the MIC (Microsporum canis) was 0.5 µg/mL (≈ 0.713 µM). For the same molecule, the MIC (Cryptococcus neoformans) was 0.24 µg/mL (≈ 0.342 µM), the MIC (Aspergillus Flavus) was 0.12 µg/mL (≈ 0.171 µM) and the MIC (Candida Krusei) was 0.21 µg/mL (≈ 0.3 µM).
In the case of Equaconazole [EQUZ], the IC50 [1] is reported as 31.1 nM, the “GMMICS (geometric mean minimum inhibitory concentration)” value (Trichophyton rubrum) is reported as 0.10 µg/mL and the “GMMICS (geometric mean minimum inhibitory concentration)” value (Microsporum canis) is reported as 0.35 µg/mL. The “GMMICS (geometric mean minimum inhibitory concentration)” value (Cryptococcus neoformans) was 0.25 µg/mL, the “GMMICS (geometric mean minimum inhibitory concentration)” value (Aspergillus Flavus) was 0.09 µg/mL and the “GMMICS (geometric mean minimum inhibitory concentration)” value (Candida Krusei) was 0.15 µg/mL. The IC50 [3] was 9.8 nM.

Source: patent US20130261131A1, “PHARMACEUTICAL COMPOSITIONS AND MENTODS FOR TREATMENT OF FUNGAL INFECTIONS” (priority 2012, published 2013)
